Data as given in ChEMBL document CHEMBL1146250, “Synthesis and antimicrobial activity of 7-fluoro-3-aminosteroids” (2007).
≈ marks a conversion by molar mass, not a printed value.

Key:
Pseudomonas aeruginosa [1] = experiment: Antimicrobial activity against Pseudomonas aeruginosa 9027; assay type: functional
Streptococcus pyogenes [2] = experiment: Antimicrobial activity against Streptococcus pyogenes 308A; assay type: functional
Escherichia coli = experiment: Antimicrobial activity against Escherichia coli DC2; assay type: functional
Salmonella typhimurium = experiment: Antimicrobial activity against Salmonella Typhimurium; assay type: functional, Salmonella enterica subsp. enterica serovar Typhimurium; settings: Salmonella enterica
Enterobacter cloacae = experiment: Antimicrobial activity against Enterobacter cloacae 1321E; assay type: functional
Pseudomonas aeruginosa [3] = experiment: Antimicrobial activity against Pseudomonas aeruginosa 1771M; assay type: functional
Streptococcus pyogenes [4] = experiment: Antimicrobial activity against Streptococcus pyogenes 77A; assay type: functional
Staphylococcus aureus = experiment: Antimicrobial activity against Staphylococcus aureus 503; assay type: functional

In the case of `C[C@@H](CO)[C@H]1CC[C@H]2[C@@H]3[C@H](O)C[C@H]4C[C@@H](NCCCNCCCCN)CC[C@]4(C)[C@H]3CC[C@]12C`, the MIC (Pseudomonas aeruginosa [1]) is reported as 12.5 µg/mL (≈ 26.2 µM), the MIC (Streptococcus pyogenes [2]) is reported as 25 µg/mL (≈ 52.3 µM) and the MIC (Escherichia coli) is reported as 25 µg/mL (≈ 52.3 µM). For the same compound, the MIC (Salmonella typhimurium) was 50 µg/mL (≈ 105 µM), the MIC (Enterobacter cloacae) was 50 µg/mL (≈ 105 µM) and the MIC (Pseudomonas aeruginosa [3]) was 25 µg/mL (≈ 52.3 µM). The MIC (Streptococcus pyogenes [4]) was 25 µg/mL (≈ 52.3 µM) and the MIC (Staphylococcus aureus) was 12.5 µg/mL (≈ 26.2 µM).

With `C[C@@H](COS(=O)(=O)O)[C@H]1CC[C@H]2[C@@H]3[C@H](O)C[C@H]4C[C@@H](NCCCNCCCCN)CC[C@]4(C)[C@H]3CC[C@]12C` the MIC (Pseudomonas aeruginosa [1]) was 50 µg/mL (≈ 89.6 µM), the MIC (Escherichia coli) was 50 µg/mL (≈ 89.6 µM) and the MIC (Salmonella typhimurium) was 50 µg/mL (≈ 89.6 µM). For the same compound, the MIC (Enterobacter cloacae) was 50 µg/mL (≈ 89.6 µM), the MIC (Pseudomonas aeruginosa [3]) was 50 µg/mL (≈ 89.6 µM) and the MIC (Streptococcus pyogenes [4]) was 50 µg/mL (≈ 89.6 µM). The MIC (Staphylococcus aureus) was 50 µg/mL (≈ 89.6 µM).

`CC(COS(=O)(=O)O)[C@H]1CC[C@H]2[C@@H]3[C@H](F)C[C@H]4C[C@H](NCCCNCCCCN)CC[C@]4(C)[C@H]3CC[C@]12C` (single isomer, unassigned) gave an MIC (Pseudomonas aeruginosa [1]) of 25 µg/mL (≈ 44.7 µM), an MIC (Streptococcus pyogenes [2]) of 12.5 µg/mL (≈ 22.3 µM) and an MIC (Escherichia coli) of 25 µg/mL (≈ 44.7 µM). It also gave an MIC (Salmonella typhimurium) of 100 µg/mL (≈ 179 µM), an MIC (Enterobacter cloacae) of 100 µg/mL (≈ 179 µM) and an MIC (Pseudomonas aeruginosa [3]) of 50 µg/mL (≈ 89.3 µM). The MIC (Streptococcus pyogenes [4]) was 12.5 µg/mL (≈ 22.3 µM) and the MIC (Staphylococcus aureus) was 12.5 µg/mL (≈ 22.3 µM).

For `CC(COS(=O)(=O)O)[C@H]1CC[C@H]2[C@@H]3[C@@H](F)C[C@H]4C[C@H](NCCCNCCCCN)CC[C@]4(C)[C@H]3CC[C@]12C` (single isomer, unassigned), the MIC (Pseudomonas aeruginosa [1]) was 50 µg/mL (≈ 89.3 µM), the MIC (Streptococcus pyogenes [2]) was 25 µg/mL (≈ 44.7 µM) and the MIC (Escherichia coli) was 25 µg/mL (≈ 44.7 µM). The MIC (Salmonella typhimurium) was 50 µg/mL (≈ 89.3 µM), the MIC (Enterobacter cloacae) was 50 µg/mL (≈ 89.3 µM) and the MIC (Pseudomonas aeruginosa [3]) was 50 µg/mL (≈ 89.3 µM). It also gave an MIC (Streptococcus pyogenes [4]) of 12.5 µg/mL (≈ 22.3 µM) and an MIC (Staphylococcus aureus) of 6.3 µg/mL (≈ 11.3 µM).

In the case of `CC(CO)[C@H]1CC[C@H]2[C@@H]3[C@H](F)C[C@H]4C[C@@H](NCCCNCCCCN)CC[C@]4(C)[C@H]3CC[C@]12C` (single isomer, unassigned), the MIC (Pseudomonas aeruginosa [1]) is reported as 6.3 µg/mL (≈ 13.1 µM), the MIC (Streptococcus pyogenes [2]) is reported as 6.3 µg/mL (≈ 13.1 µM) and the MIC (Escherichia coli) is reported as 6.3 µg/mL (≈ 13.1 µM). It also gave an MIC (Salmonella typhimurium) of 100 µg/mL (≈ 208 µM), an MIC (Enterobacter cloacae) of 100 µg/mL (≈ 208 µM) and an MIC (Pseudomonas aeruginosa [3]) of 3.1 µg/mL (≈ 6.46 µM). The MIC (Streptococcus pyogenes [4]) was 6.3 µg/mL (≈ 13.1 µM) and the MIC (Staphylococcus aureus) was 6.3 µg/mL (≈ 13.1 µM).

For `CC(CO)[C@H]1CC[C@H]2[C@@H]3CC[C@H]4C[C@@H](NCCCNCCCCN)CC[C@]4(C)[C@H]3CC[C@]12C` (single isomer, unassigned), the MIC (Pseudomonas aeruginosa [1]) was 12.5 µg/mL (≈ 27.1 µM), the MIC (Streptococcus pyogenes [2]) was 100 µg/mL (≈ 217 µM) and the MIC (Escherichia coli) was 12.5 µg/mL (≈ 27.1 µM). The MIC (Salmonella typhimurium) was 50 µg/mL (≈ 108 µM), the MIC (Enterobacter cloacae) was 100 µg/mL (≈ 217 µM) and the MIC (Pseudomonas aeruginosa [3]) was 6.3 µg/mL (≈ 13.6 µM). It also gave an MIC (Streptococcus pyogenes [4]) of 100 µg/mL (≈ 217 µM) and an MIC (Staphylococcus aureus) of 6.3 µg/mL (≈ 13.6 µM).

`CC(CO)[C@H]1CC[C@H]2[C@@H]3[C@@H](F)C[C@H]4C[C@@H](NCCCNCCCCN)CC[C@]4(C)[C@H]3CC[C@]12C` (single isomer, unassigned) showed an MIC (Pseudomonas aeruginosa [1]) of 12.5 µg/mL (≈ 26.1 µM), an MIC (Streptococcus pyogenes [2]) of 12.5 µg/mL (≈ 26.1 µM) and an MIC (Escherichia coli) of 12.5 µg/mL (≈ 26.1 µM). For the same compound, the MIC (Salmonella typhimurium) was 100 µg/mL (≈ 208 µM), the MIC (Enterobacter cloacae) was 100 µg/mL (≈ 208 µM) and the MIC (Pseudomonas aeruginosa [3]) was 6.3 µg/mL (≈ 13.1 µM). It also gave an MIC (Streptococcus pyogenes [4]) of 12.5 µg/mL (≈ 26.1 µM) and an MIC (Staphylococcus aureus) of 6.3 µg/mL (≈ 13.1 µM).

`CC(COS(=O)(=O)O)[C@H]1CC[C@H]2[C@@H]3[C@H](F)C[C@H]4C[C@@H](NCCCNCCCCN)CC[C@]4(C)[C@H]3CC[C@]12C` (single isomer, unassigned) showed an MIC (Pseudomonas aeruginosa [1]) of 12.5 µg/mL (≈ 22.3 µM), an MIC (Streptococcus pyogenes [2]) of 50 µg/mL (≈ 89.3 µM) and an MIC (Escherichia coli) of 50 µg/mL (≈ 89.3 µM). For the same compound, the MIC (Salmonella typhimurium) was 100 µg/mL (≈ 179 µM), the MIC (Enterobacter cloacae) was 100 µg/mL (≈ 179 µM) and the MIC (Pseudomonas aeruginosa [3]) was 25 µg/mL (≈ 44.7 µM). For the same compound, the MIC (Streptococcus pyogenes [4]) was 50 µg/mL (≈ 89.3 µM) and the MIC (Staphylococcus aureus) was 25 µg/mL (≈ 44.7 µM).

Compound `CC(CO)[C@H]1CC[C@H]2[C@@H]3[C@H](F)C[C@H]4C[C@H](NCCCNCCCCN)CC[C@]4(C)[C@H]3CC[C@]12C` (single isomer, unassigned) has an MIC (Pseudomonas aeruginosa [1]) of 50 µg/mL (≈ 104 µM), an MIC (Streptococcus pyogenes [2]) of 25 µg/mL (≈ 52.1 µM) and an MIC (Escherichia coli) of 50 µg/mL (≈ 104 µM). It also gave an MIC (Salmonella typhimurium) of 100 µg/mL (≈ 208 µM), an MIC (Enterobacter cloacae) of 100 µg/mL (≈ 208 µM) and an MIC (Pseudomonas aeruginosa [3]) of 100 µg/mL (≈ 208 µM). It also gave an MIC (Streptococcus pyogenes [4]) of 12.5 µg/mL (≈ 26.1 µM) and an MIC (Staphylococcus aureus) of 12.5 µg/mL (≈ 26.1 µM).

`CC(CO)[C@H]1CC[C@H]2[C@@H]3[C@@H](F)C[C@H]4C[C@H](NCCCNCCCCN)CC[C@]4(C)[C@H]3CC[C@]12C` (single isomer, unassigned) was tested, and the MIC (Pseudomonas aeruginosa [1]) was 12.5 µg/mL (≈ 26.1 µM), the MIC (Streptococcus pyogenes [2]) was 12.5 µg/mL (≈ 26.1 µM) and the MIC (Escherichia coli) was 12.5 µg/mL (≈ 26.1 µM). For the same compound, the MIC (Salmonella typhimurium) was 50 µg/mL (≈ 104 µM), the MIC (Enterobacter cloacae) was 100 µg/mL (≈ 208 µM) and the MIC (Pseudomonas aeruginosa [3]) was 25 µg/mL (≈ 52.1 µM). The MIC (Streptococcus pyogenes [4]) was 6.3 µg/mL (≈ 13.1 µM) and the MIC (Staphylococcus aureus) was 6.3 µg/mL (≈ 13.1 µM).

`CC(COS(=O)(=O)O)[C@H]1CC[C@H]2[C@@H]3[C@@H](F)C[C@H]4C[C@@H](NCCCNCCCCN)CC[C@]4(C)[C@H]3CC[C@]12C` (single isomer, unassigned) showed an MIC (Pseudomonas aeruginosa [1]) of 50 µg/mL (≈ 89.3 µM), an MIC (Streptococcus pyogenes [2]) of 50 µg/mL (≈ 89.3 µM) and an MIC (Escherichia coli) of 25 µg/mL (≈ 44.7 µM). For the same compound, the MIC (Salmonella typhimurium) was 50 µg/mL (≈ 89.3 µM), the MIC (Enterobacter cloacae) was 50 µg/mL (≈ 89.3 µM) and the MIC (Pseudomonas aeruginosa [3]) was 50 µg/mL (≈ 89.3 µM). It also gave an MIC (Streptococcus pyogenes [4]) of 50 µg/mL (≈ 89.3 µM) and an MIC (Staphylococcus aureus) of 50 µg/mL (≈ 89.3 µM).
